For this assay, the target named is T1, recombinant 15-PGDH (Homo sapiens, UniProt P15428).
T1 sequence (P15428 1-266): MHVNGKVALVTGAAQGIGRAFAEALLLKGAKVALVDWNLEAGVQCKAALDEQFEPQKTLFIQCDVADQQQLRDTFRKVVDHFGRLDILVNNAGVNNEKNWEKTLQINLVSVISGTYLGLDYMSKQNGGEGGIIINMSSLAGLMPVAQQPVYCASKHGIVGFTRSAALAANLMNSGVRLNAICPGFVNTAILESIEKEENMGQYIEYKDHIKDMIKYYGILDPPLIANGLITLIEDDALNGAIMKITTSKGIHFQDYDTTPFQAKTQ
It counts as biochemical. The following applies: recombinant human 15-PGDH, in vitro; read-out: PDGH Assay-IC50.

Excerpt: The Recombinant 15-PGDH is human unless otherwise specified.

Regarding `Nc1c([S+]([O-])C2CCC2)sc2nc(-c3cnc4c(c3)CNC4=O)cc(-c3ncccn3)c12` (stereo not drawn) [Example 304], the IC50 (in general, the point on the concentration scale where inhibition reaches its midpoint) fell in the range of 2.5 to 10 nM. In the case of `Cn1nccc1-c1cc(-c2cnc3c(c2)CNC3=O)nc2sc([S+]([O-])C3CCC3)c(N)c12` (stereo not drawn) [Example 305], the IC50 was below 2.5 nM. As for `Nc1c([S@+]([O-])C2CCC2)sc2nc(-c3cnc(NCCO)nc3)cc(C3CCC3)c12` [Example 306], the IC50 is below 2.5 nM. The result for `Nc1c([S+]([O-])C2CCC2)sc2nc(-c3cncnc3)cc(-c3cc[nH]n3)c12` (stereo not drawn) [Example 307] reads below 2.5 nM. With `Nc1c([S+]([O-])C2CCC2)sc2nc(-c3cncnc3)cc(-c3ccon3)c12` (stereo not drawn) [Example 308], the IC50 is below 2.5 nM.

Consider `Nc1c([S@+]([O-])C2CCC2)sc2nc(-c3cncnc3)cc(-c3ccon3)c12` [Example 309], for which the IC50 was below 2.5 nM. Regarding `Nc1c([S@@+]([O-])C2CCC2)sc2nc(-c3cncnc3)cc(-c3ccon3)c12` [Example 310], the IC50 was at least 10 nM. On to `Nc1c([S+]([O-])C2CCC2)sc2nc(-c3cncnc3)cc(-c3ccno3)c12` (stereo not drawn) [Example 311], for which the IC50 was below 2.5 nM. In the case of `Cn1nccc1-c1cc(-c2cnc(NCCO)nc2)nc2sc([S+]([O-])C3CCC3)c(N)c12` (stereo not drawn) [Example 312], the IC50 is below 2.5 nM. Regarding `Cn1nccc1-c1cc(-c2cnc(NCCO)nc2)nc2sc([S@+]([O-])C3CCC3)c(N)c12` [Example 313], the IC50 is below 2.5 nM. With `Cn1nccc1-c1cc(-c2cnc(NCCO)nc2)nc2sc([S@@+]([O-])C3CCC3)c(N)c12` [Example 314], the IC50 was at least 10 nM.

Take `Cc1ncc(-c2cc(C3=CCNN3C)c3c(N)c([S+]([O-])C4CCC4)sc3n2)cn1` (stereo not drawn) [Example 315]: the IC50 was in the range of 2.5 to 10 nM. As for `Cn1nccc1-c1cc(-c2ccc3c(=O)[nH]ccc3c2)nc2sc([S+]([O-])C3CCC3)c(N)c12` (stereo not drawn) [Example 316], the IC50 fell in the range of 2.5 to 10 nM. Consider `COCC[S+]([O-])c1sc2nc(-c3ccc4c(=O)[nH]ccc4c3)cc(-c3ccnn3C)c2c1N` (stereo not drawn) [Example 317], for which the IC50 is below 2.5 nM. Take `COCC[S+]([O-])c1sc2nc(-c3cnn4ccnc4c3)cc(-c3ccnn3C)c2c1N` (stereo not drawn) [Example 318]: the concentration for half-maximal inhibition (IC50) was below 2.5 nM. With `Cn1nccc1-c1cc(-c2cnn3ccnc3c2)nc2sc([S+]([O-])C3CCC3)c(N)c12` (stereo not drawn) [Example 319], the IC50 was below 2.5 nM. Consider `Cn1nccc1-c1cc(-c2cnc3nccn3c2)nc2sc([S+]([O-])C3CCC3)c(N)c12` (stereo not drawn) [Example 320], for which the IC50 is below 2.5 nM. For the molecule `COCC[S+]([O-])c1sc2nc(-c3cnc4c(c3)nnn4C)cc(-c3ccnn3C)c2c1N` (stereo not drawn) [Example 324], the half-maximal inhibitory concentration (IC50) was below 2.5 nM. The result for `Cn1nccc1-c1cc(-c2cnc3c(c2)nnn3C)nc2sc([S+]([O-])C3CCC3)c(N)c12` (stereo not drawn) [Example 325] reads below 2.5 nM; that for `Cn1nccc1-c1cc(-c2cnc3c(c2)nnn3C)nc2sc([S@+]([O-])C3CCC3)c(N)c12` [Example 326], below 2.5 nM; that for `Cn1nccc1-c1cc(-c2cnc3c(c2)nnn3C)nc2sc([S@@+]([O-])C3CCC3)c(N)c12` [Example 327], at least 10 nM.

`Nc1ncc(-c2cc(-c3ncccn3)c3c(N)c([S+]([O-])C4CCC4)sc3n2)cn1` (stereo not drawn) [Example 328]: the IC50 was below 2.5 nM.

For `CNc1ncc(-c2cc(-c3ncccn3)c3c(N)c([S+]([O-])C4CCC4)sc3n2)cn1` (stereo not drawn) [Example 329], the IC50 was below 2.5 nM. `CNc1ncc(-c2cc(-c3ccnn3C)c3c(N)c([S+]([O-])CCOC)sc3n2)cn1` (stereo not drawn) [Example 330]: the IC50 is below 2.5 nM. In the case of `CNc1ncc(-c2cc(-c3ccnn3C)c3c(N)c([S@+]([O-])CCOC)sc3n2)cn1` [Example 331], the IC50 is below 2.5 nM. Turning to `CNc1ncc(-c2cc(-c3ccnn3C)c3c(N)c([S@@+]([O-])CCOC)sc3n2)cn1` [Example 332], the IC50 is at least 10 nM.

As for `Cn1cc2cc(-c3cc(-c4ccnn4C)c4c(N)c([S+]([O-])C5CCC5)sc4n3)cnc2n1` (stereo not drawn) [Example 333], the IC50 is below 2.5 nM.

Values taken from patent US12336982B2 (RODEO THERAPEUTICS CORPORATION, priority 2018, dated 2025).
